Assay results: patent US20130331427A1, “METHODS OF STIMULATING CELLULAR GROWTH, SYNAPTIC, REMODELING AND CONSOLIDATION OF LONG-TERM MEMORY” (Blanchette Rockefeller Neuroscience Institute, priority 2007, published 2013)
Where two headings read alike, the source gives them in different places.

Experiments:
[1] = test system: PKC; details: cited from earlier work
[2] = test system: PKC; assay: PKC affinity of bryostatin and bryologs; format: binding
Description: Structurally, they are all similar.

[3] = molecular target: T1, PKCε (Homo sapiens, UniProt Q02156); details: cited from earlier work
T1 sequence (Q02156 1-737): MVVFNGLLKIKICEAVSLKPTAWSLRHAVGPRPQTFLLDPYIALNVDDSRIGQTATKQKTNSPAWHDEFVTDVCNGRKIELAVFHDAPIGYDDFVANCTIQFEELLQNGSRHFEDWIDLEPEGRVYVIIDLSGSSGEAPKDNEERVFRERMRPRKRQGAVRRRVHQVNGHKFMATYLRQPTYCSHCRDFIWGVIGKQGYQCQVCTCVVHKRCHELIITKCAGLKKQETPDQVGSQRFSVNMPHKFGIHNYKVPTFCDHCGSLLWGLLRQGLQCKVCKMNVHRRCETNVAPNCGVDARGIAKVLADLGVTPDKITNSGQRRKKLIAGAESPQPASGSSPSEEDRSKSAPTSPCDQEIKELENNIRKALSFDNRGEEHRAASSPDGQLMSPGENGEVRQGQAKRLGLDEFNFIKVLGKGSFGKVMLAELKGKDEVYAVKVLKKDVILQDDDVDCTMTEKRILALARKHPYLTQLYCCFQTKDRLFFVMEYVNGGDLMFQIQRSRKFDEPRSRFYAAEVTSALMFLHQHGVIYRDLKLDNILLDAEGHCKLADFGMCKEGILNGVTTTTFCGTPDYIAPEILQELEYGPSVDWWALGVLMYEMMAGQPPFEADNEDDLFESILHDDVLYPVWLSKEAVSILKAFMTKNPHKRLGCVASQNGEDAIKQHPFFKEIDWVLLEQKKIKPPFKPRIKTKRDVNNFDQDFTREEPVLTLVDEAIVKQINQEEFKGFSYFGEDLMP

[4] = test system: murine leukemias and solid tumors; details: cited from earlier work
[5] = test system: cyclin dependent kinase 2 (Cdk2); details: at 5 ng/ml; cited from earlier work
[6] = test system: PKC; details: K562 cells; cited from earlier work
[7] = molecular target: PKC; details: [3H]phorbol dibutyrate competition; read-out: Ki for binding; cited from earlier work
[8] = test system: squamous cell carcinoma and melanoma; details: used topically; cited from earlier work
[9] = test system: NCI 60 cell line screen; details: cited from earlier work
[10] = test system: Hermissenda Crassicornis; assay: Pavlovian conditioning of Hermissenda, memory retention; format: in vivo
Method: Specimens of Hermissenda Crassicornis were maintained in artificial sea water (ASW) at 15° for three days in perforated 50-ml conical centrifuge tubes before starting experiments. […] For selected experiments lactacysteine (10 μM) or anisomycin was added to the ASW.
Pavlovian conditioning of Hermissenda involves repeated pairings of a neutral stimulus, light, with an unconditioned stimulus, orbital shaking. (See, Lederhendler et al. (24) and Epstein et al. (6)). A rotation/shaking stimulus excites the statocyst hair cells and thereby elicits an unconditioned response: a brisk contraction of the muscular undersurface called a foot, accompanied by adherence or “clinging” to the surface that supports the foot. Before conditioning, light elicits a weakly positive phototaxis accompanied by lengthening of the foot. After sufficient light-rotation pairings, light no longer elicits phototaxis, but instead elicits a new response (24): the “clinging” and foot shortening previously elicited only by the unconditional stimulus (FIG. 1). Thus, the meaning of the unconditioned stimulus, rotation or orbital shaking, has been transferred to the conditioned stimulus and is manifested by a light-elicited foot contraction—a negative change of foot length. This conditioned response to light can last for weeks, is not produced by randomized light and rotation, is stimulus-specific, and shares the other defining characteristics of mammalian Pavlovian Conditioning.
Pavlovian conditioning of Hermissenda has well-defined training parameters that produce progressively longer-lasting retention of the learned conditioned response. Two training events (2 TE) of paired light and orbital shaking (see “Methods”), for example, induce a learned conditioned response (light-elicited foot contraction or shortening) that persists without drug treatment for approximately 7 minutes. Four to six training events (4-6 TE) induce a conditioned response that persists up to several hours, but disappears approximately by 1 day after training. Nine TE produces long-term associative memory lasting many days and often up to two weeks.
All animals were tested with the CS alone at 4 h, then at 24-h intervals.

[11] = test system: CA1 neurons; assay: acute hippocampal slices, number of dendritic spines (spinophilin); format: cell-based; details: PKC blocker
[12] = test system: calexcitin; assay: calexcitin immunostaining in Hermissenda B-photoreceptors; format: in vivo
Method: Following experimental treatments and testing, animals were rapidly decapitated, the central nervous systems (CNS) removed and then fixed in 4% para-formaldehyde in 20 mM Tris-buffered (pH 8) natural seawater (NSW; 0.2 μm micropore-filtered). The CNSs were then embedded in polyester wax (20), sectioned (6 μm) and immunostained using a biotinylated secondary antibody coupled to avidin-bound microperoxidase (ABC method, Vector), Aminoethylcarbazole (AEC) was used as the chromogen. The primary polyclonal antibody (designated 25U2) was raised in rabbits from the full length calexcitin protein extracted from squid optic lobes. Gray-scale intensity measures were done from digital photomicrographs on circumscribed cytoplasmic areas of the B-photoreceptors minus the same background area (non-staining neuropile).
Micrographs (A, B) depict representative tissue sections from Hermissenda eyes that were immunolabeled with the calexcitin polyclonal antibody, 25U2. […] Differences in staining intensities were measured and recorded as gray-scale intensities (0-256; B-cell cytoplasm minus tissue background).

[13] = test system: Rat IGF-IR cells; assay: overall protein synthesis, [35S]methionine incorporation; details: PKC inhibitor also present
Method: [^35S]Methionine (9.1 μCi) was then added to the medium followed by analysis of radiolabel.

[14] = test system: PKC; assay: PKC activity (histone phosphorylation) in Hermissenda nervous systems; format: in vivo; details: anisomycin 1.0 ng/ml with each bryostatin 0.25 ng/ml exposure, three successive days
Method: Cells were homogenized by sonication (5 sec, 25 W) in 100 μl of 100 mM Tris-HCL pH 7.4 buffer containing 1 mM EGTA, 1 mM PMSF, and 50 mM NaF. Homogenate was transferred to a polyallomer centrifuge tube and was centrifuged at 100,000×g for 10 min at 4°. The supernatant was removed and immediately frozen on dry ice. The particulate fraction was resuspended by sonication in 100 μl of the same buffer and stored at −80°. To measure PKC, 10 μl of cytosol or particulate fraction was incubated for 15 min at 37° in the presence of 10 μM histones, 4.89 mM CaCl2, 1.2 μg/μl phosphatidyl-L-serine, 0.18 μg/μl 1.2-dioctanoyl-sn-glycerol, 10 mM MgCl2, 20 mM HEPES (pH 7.4), 0-8 mM EDTA, 4 mM EGTA, 4% glycerol, 8 μg/ml aprotinin, 8 μg/ml leupeptin, and 2 mM benzamidine. 0.5 μCi [γ^32-P]ATP was added and ^32P-phosphoprotein formation was measured by adsorption onto phosphocellulose as described previously (25). This assay was used with slight adjustments for either Hermissenda nervous system homogenates or cultured mammalian neuron homogenates.
Histone phosphorylation (See “Methods”) in isolated circumesophageal nervous systems was then measured in the cytosol fraction. […] (FIG. 12, 13).

[15] = molecular target: protein kinase C; details: (−)-enantiomer; cited from earlier work
[16] = test system: sAPP secretion; details: control and AD fibroblasts; cited from earlier work
[17] = 2000 IU/day; cited from earlier work
[18] = A-ring bryologs, read-out: affinity for PKC

Compound: CCCCCCCC(=O)O[C@H]1/C(=C/C(=O)OC)C[C@H]2C[C@H](CO)OC(=O)C[C@H](O)C[C@@H]3CCC[C@H](C[C@@H]4CCO[C@H](/C=C/C(C)(C)[C@]1(O)O2)O4)O3 [Analog 1]
- affinity for PKC, in words [1]: highest affinity for PKC
- Ki ([1]; read-out: PKC Affin): 0.25 nM
- potency relative to bryostatin-1 [2]: about 100 times

Compound: CCCCCCCC(=O)O[C@H]1/C(=C/C(=O)OC)C[C@H]2C[C@H](CO)OC(=O)C[C@H](O)CCOCC[C@@H]3CCO[C@H](/C=C/C(C)(C)[C@]1(O)O2)O3 [Analog 2]
- affinity for PKC, in words [1]: maintains high affinity for PKC
- Ki ([1]; read-out: PKC Affin): 6.5 nM

Compound: CCCCCC1CC1CC1CC1CCCCCCCC(=O)O (stereo not drawn) [DCP-LA, 2-[(2-pentylcyclopropyl)methyl]cyclopropaneoctanoic acid]
- concentration of maximal effect on PKCε [3]: 100 nM

Compound: C=C(C)[C@]12C[C@@H](COC(=O)c3ccccc3)[C@@]34OC5(O[C@@H]1[C@@H]3C1O[C@]1(CO)[C@@H](O)[C@@]1(O)[C@H]4[C@@H](C(C)CCCCCC[C@@H]5O)C(C)[C@@H]1OC(=O)c1ccccc1)O2 (stereo partly drawn) [Gnidimacrin]
- concentrations displaying potent antitumor activity [4]: 0.1 to 1 nM
- inhibition of Cdk2 [5]: 100%
- concentration at which it acts as a PKC activator [6]: 0.3 nM

Compound: CC1=C[C@]23C(=O)[C@@H](C=C(COC(=O)c4ccccc4)[C@@H](O)[C@]2(O)[C@H]1OC(=O)c1ccccc1)[C@H]1[C@@H](C[C@H]3C)C1(C)C [Ingenol 3,20-dibenzoate]
- Ki [7]: 240 nM

Compound: C/C=C(/C)C(=O)O[C@H]1C(C)=C[C@]23C(=O)[C@@H](C=C(CO)[C@@H](O)[C@]12O)[C@H]1[C@@H](C[C@H]3C)C1(C)C [Ingenol-3-angelate]
- antitumor activity [8]: possesses antitumor activity

Compound: CC1=CC[C@H](C)C(C)(C)[C@@H]1/C=C/C(C)=C/CC[C@@]1(CO)[C@H](CCCO)/C(=C(/C)C=O)CC[C@]1(C)O [Iripallidal]
- GI50 (concentration required to inhibit growth by 50%) [9]: from micromolar to nanomolar range

Compound: CC(=O)N[C@@H](CSC(=O)[C@]1([C@@H](O)C(C)C)NC(=O)[C@H](C)[C@@H]1O)C(=O)O [Lactacysteine]
- acquisition or retention of behavioral training ([10]; lactacysteine 10 μM alone for 4 h, 2-paired TEs 24 hrs later): no acquisition or retention of behavioral training
- memory after single bryostatin exposure followed by 2 TE ([10]; lactacysteine 10 μM together with bryostatin 0.25 ng/ml for 4 h): long-term memory lasting many days

Compound: Cn1cc(C2=C(c3cn(CCCSC(=N)N)c4ccccc34)C(=O)NC2=O)c2ccccc21 [RO-31-8220]
- effect on bryostatin-induced ELAV transport and spine increase [11]: suppressed

Compound: CN(C)C[C@H]1CCn2c(c(C3=C(c4cn(C)c5ccccc45)C(=O)NC3=O)c3ccccc32)C1 [Ro-32]
- effect on learning-specific calexcitin increases in the Type B cell ([12]; in vivo): prevented
- effect on bryostatin-induced increase of protein synthesis [13]: partially blocked
- effect on bryostatin-induced increase of protein synthesis ([13]; listed as Ro-32-0432): increasing significantly less
- effect on long-term memory induction ([10]; Ro-32 immediately after bryostatin plus training): did not prevent long-term memory induction
- effect on 6 TE plus bryostatin ([10]; applied pre-training during dark adaptation): blocked

Compound: COc1ccc(C[C@H]2NC[C@H](O)[C@H]2OC(C)=O)cc1 [anisomycin]
- effect on PKC activity, cytosolic and membrane fractions [14]: markedly reduced
- effect on calexcitin level ([12]; anisomycin immediately after 2-paired TEs, 3 days of 4-hr bryostatin): did not reduce
- effect on memory retention produced by 9 TE ([10]; 4 hour anisomycin treatment, no bryostatin): eliminated all memory retention
- effect on memory from single 4 hour bryostatin exposure with 2 TE ([10]; anisomycin 1.0 μg/ml): entirely eliminated
- effect on long-term retention after three-day bryostatin treatments ([10]; anisomycin 1 μg/ml for four hours post-training, 2-TEs): did not prevent long-term retention

Compound: CCCCCCCC(=O)OC1C(=CC(=O)OC)CC2CC(CO)OC(=O)CC(O)CCOC(C(C)(C)C)CC3CCOC(C=CC(C)(C)C1(O)O2)O3 (stereo not drawn) [bryolog 3]
- Ki [1, 18]: 6.5 nM

Compound: CCCCCCCC(=O)OC1C(=CC(=O)OC)CC2CC(CO)OC(=O)CC(O)CCOC(c3ccccc3)CC3CCOC(C=CC(C)(C)C1(O)O2)O3 (stereo not drawn) [bryolog 4]
- Ki [1, 18]: 2.3 nM

Compound: CCCCCCCC(=O)OC1C(=CC(=O)OC)CC2CC(CO)OC(=O)CC(O)CCOC(CCCc3ccc(Br)cc3)CC3CCOC(C=CC(C)(C)C1(O)O2)O3 (stereo not drawn) [bryolog 5]
- Ki [1, 18]: 1.9 nM

Compound: COc1ccc2c(c[n+](C)c3c4cc5c(cc4ccc23)OCO5)c1OC [chelerythrine]
- effect on bryostatin-induced ELAV transport and spine increase [11]: suppressed

Compound: CCCCCCCCc1ccc2c3c(c[nH]c13)C[C@@H](CO)NC(=O)[C@H](C(C)C)N2C [octylindolactam V, Octylindolactam V]
- EC50 [15]: 29 nM

Compound: CN[C@@H]1C[C@H]2O[C@@](C)([C@@H]1OC)n1c3ccccc3c3c4c(c5c6ccccc6n2c5c31)C(=O)NC4 [staurosporine]
- effect on benzolactam-induced sAPP secretion [16]: eliminated the effects of benzolactam

Compound: vitamin E
- cognitive abilities [17]: did not enhance cognitive abilities
- mortality and morbidity [17]: reduced mortality and morbidity
